These results are taken from patent US20050147670A1, “Oral disintegrating dosage forms” (IMPAX Laboratories Inc., priority 2002, published 2005).

The nature of data set [1]: Bioavailability study of 25/250 mg orally disintegrating tablets in healthy adult volunteers, fasting. Type of data set: in vivo. To be noted: human, oral, Mean ± SD, 25/250 mg ODT, 36 healthy adult volunteers, plasma; for AUC(0-inf): read-out: AUCinf_obs.
The conditions of data set [2]: combination of carbidopa and levodopa, no entacapone; cited from earlier work.

Usually Cmax stands for the highest concentration seen after dosing. Broadly, the Tmax is the time at which the peak concentration occurs. On to `C[C@@](Cc1ccc(O)c(O)c1)(NN)C(=O)O` [Carbidopa], for which, in data set [1], the Cmax was 98.5 ± 38.3 ng/mL, the Tmax came to 2.8 ± 1 h and the AUC(0-inf) is 560 ± 197 ng·h/mL.

As to `N[C@@H](Cc1ccc(O)c(O)c1)C(=O)O` [Levodopa, (−)-L-α-amino-β-(3,4-dihydroxybenzene) propanoic acid monohydrate], in data set [1], the Cmax is 1470 ± 567 ng/mL, the Tmax is 1.7 ± 0.8 h and the AUC(0-inf) was 4480 ± 1580 ng·h/mL. Further, the “levodopa half-life without entacapone” value in data set [2] is 1.3 h.
